{"source": "paper PMC7914897", "about": "“Cytotoxic Potential of a-Azepano- and 3-Amino-3,4-SeCo-Triterpenoids” (International Journal of Molecular Sciences, 2021)", "key": {"HL-60(TB) (Leukemia)": {"tested_on": "HL-60(TB) (Leukemia)", "assay": "NCI-60 screen (SRB, 48 h)", "type": "cell-based", "details": "Homo sapiens; for IC (TGI): 48 h; for CC50: read-out: LC50 (the source's name)"}, "A375 cells": {"tested_on": "A375 cells", "assay": "Annexin V/PI flow cytometry", "type": "cell-based, human", "details": "A375, 48 h, 2 × EC50", "description": "Due to its good cytotoxic properties, compound 11 was subjected to flow cytometric measurements (Annexin V/PI assay).\nThereby, the BL1-A signal corresponds to the FITC signal for annexin V (x-axis) while PI is detected at BL3-A (y-axis). Thus, cells in R1 correspond to necrotic cells, those in R2 to late apoptosis, cells in R3 are viable cells, and cells in R4 have died from apoptosis.\nApproximately 600,000 cells (A375) were seeded in cell culture flasks and were allowed to grow for 1 day. After removing of the medium, the substance loaded medium was added, and the flasks were incubated for 48 h. All cells were harvested, centrifuged (1200 rpm, 5 min), and washed twice (PBS (w/w)). Approximately 100,000 cells were washed with annexin V bounding buffer (BD Biosciences®) and treated with a propidium iodide solution (3 μL, 1 mg/mL) and annexin V (5 μL, BD Biosciences®) for 15 min at room temperature in the dark. After adding annexin V bounding buffer (400 μL) the suspension was submitted to a FACS measurement."}, "OVCAR-3 (Ovarian cancer)": {"tested_on": "OVCAR-3 (Ovarian cancer)", "details": "OVCAR-3, 1 dose 10 µM"}}}
{"smiles": "C=C(C)[C@@H]1CC[C@]2(C)[C@H](CC=C3[C@@H]4[C@@H](C)[C@H](C)CC[C@]4(CO)CC[C@]32C)[C@@]1(C)CCCN", "note": "[Compound 19]", "values": [{"measurement": "GI50", "setting": "HL-60(TB) (Leukemia)", "value": 1030, "unit": "nM"}, {"measurement": "IC (TGI)", "setting": "HL-60(TB) (Leukemia)", "value": 2270, "unit": "nM"}, {"measurement": "CC50", "setting": "HL-60(TB) (Leukemia)", "value": 5000, "unit": "nM"}]}
{"smiles": "Cc1ccc(S(=O)(=O)OC[C@]23CCC(C)(C)C[C@H]2C2=CC[C@@H]4[C@@]5(C)CCCNC(C)(C)[C@@H]5CC[C@@]4(C)[C@]2(C)CC3)cc1", "note": "[Compound 15]", "values": [{"measurement": "GI50", "setting": "HL-60(TB) (Leukemia)", "value": 1850, "unit": "nM"}, {"measurement": "IC (TGI)", "setting": "HL-60(TB) (Leukemia)", "value": 4060, "unit": "nM"}]}
{"smiles": "C=C(C)[C@@H]1CC[C@]2(C)[C@H](C=CC3=C4C[C@@](C)(CO)CC[C@]4(C)CC[C@]32C)[C@@]1(C)CCCN", "note": "[Compound 20]", "values": [{"measurement": "GI50", "setting": "HL-60(TB) (Leukemia)", "value": 1580, "unit": "nM"}, {"measurement": "IC (TGI)", "setting": "HL-60(TB) (Leukemia)", "value": 3620, "unit": "nM"}]}
{"smiles": "CC1(C)NCCC[C@]2(C)[C@H]3C=CC4=C5C[C@@](C)(CO)CC[C@]5(C)CC[C@@]4(C)[C@]3(C)CC[C@@H]12", "note": "[Compound 6, azepano-glycyrrhetol-diene]", "values": [{"measurement": "GI50", "setting": "HL-60(TB) (Leukemia)", "value": 2630, "unit": "nM"}, {"measurement": "IC (TGI)", "setting": "HL-60(TB) (Leukemia)", "value": 7020, "unit": "nM"}, {"measurement": "CC50", "setting": "HL-60(TB) (Leukemia)", "value": 32600, "unit": "nM"}]}
{"smiles": "C[C@H]1[C@H](C)CC[C@]2(C(=O)Nc3ccc4ncccc4c3)CC[C@]3(C)C(=CC[C@@H]4[C@@]5(C)CCCNC(C)(C)[C@@H]5CC[C@]43C)[C@H]12", "note": "[Compound 14]", "values": [{"measurement": "GI50", "setting": "HL-60(TB) (Leukemia)", "value": 1640, "unit": "nM"}, {"measurement": "IC (TGI)", "setting": "HL-60(TB) (Leukemia)", "value": 3630, "unit": "nM"}]}
{"smiles": "CC1(C)CC[C@]2(CO)CC[C@]3(C)C(=CC[C@@H]4[C@@]5(C)CCCNC(C)(C)[C@@H]5CC[C@]43C)[C@@H]2C1", "note": "[Compound 3, azepanoerythrodiol]", "values": [{"measurement": "GI50", "setting": "HL-60(TB) (Leukemia)", "value": 1950, "unit": "nM"}, {"measurement": "CC50", "setting": "HL-60(TB) (Leukemia)", "value": "> 100000", "unit": "nM"}]}
{"smiles": "C=C(C)[C@@H]1CC[C@]2(C(=O)N[C@H](CO)Cc3ccccc3)CC[C@]3(C)[C@H](CC[C@@H]4[C@@]5(C)CCCNC(C)(C)[C@@H]5CC[C@]43C)[C@@H]12", "note": "[Compound 11]", "values": [{"measurement": "cells died by apoptosis (R4)", "setting": "A375 cells", "value": 44.3, "unit": "%"}, {"measurement": "necrotic cells (R1)", "setting": "A375 cells", "value": 1.1, "unit": "%"}, {"measurement": "GI50", "setting": "HL-60(TB) (Leukemia)", "value": 200, "unit": "nM"}, {"measurement": "IC (TGI)", "setting": "HL-60(TB) (Leukemia)", "value": 460, "unit": "nM"}, {"measurement": "Growth % of the Most Sensitive Cell Lines", "setting": "OVCAR-3 (Ovarian cancer)", "value": "−95.88", "unit": "%"}]}
{"smiles": "CC(C)=C1CCC=C2CC[C@]3(C)[C@H](CC[C@@H]4[C@@]5(C)CCCNC(C)(C)[C@@H]5CC[C@]43C)[C@H]21", "note": "[Compound 9]", "values": [{"measurement": "GI50", "setting": "HL-60(TB) (Leukemia)", "value": 1700, "unit": "nM"}, {"measurement": "IC (TGI)", "setting": "HL-60(TB) (Leukemia)", "value": 3500, "unit": "nM"}, {"measurement": "CC50", "setting": "HL-60(TB) (Leukemia)", "value": 7190, "unit": "nM"}]}
{"smiles": "Cc1ccc(S(=O)(=O)OC[C@@]2(C)CC[C@]3(C)CC[C@]4(C)C(=C3C2)C=C[C@@H]2[C@@]3(C)CCCNC(C)(C)[C@@H]3CC[C@]24C)cc1", "note": "[Compound 16]", "values": [{"measurement": "GI50", "setting": "HL-60(TB) (Leukemia)", "value": 1980, "unit": "nM"}, {"measurement": "IC (TGI)", "setting": "HL-60(TB) (Leukemia)", "value": 4020, "unit": "nM"}]}
{"smiles": "C=C(C)[C@@H]1CCC=C2CC[C@]3(C)[C@H](CC[C@@H]4[C@@]5(C)CCCNC(C)(C)[C@@H]5CC[C@]43C)[C@H]21", "note": "[Compound 8]", "values": [{"measurement": "Growth % of the Most Sensitive Cell Lines", "setting": "OVCAR-3 (Ovarian cancer)", "value": "−93.30", "unit": "%"}]}
